What was measured:
human TLR7 = molecular target: T1, human TLR7 (Homo sapiens, UniProt Q9NYK1); assay: Human TLR7 agonist activity (hTLR7 reporter) assay in HEK-Blue TLR7 cells, SEAP readout; format: cell-based; details: 18 h treatment, average where assay repeated
T1 construct: host or cells: HEK-Blue TLR7 cells (engineered human embryonic kidney cells)
T1 sequence (Q9NYK1 27-1049): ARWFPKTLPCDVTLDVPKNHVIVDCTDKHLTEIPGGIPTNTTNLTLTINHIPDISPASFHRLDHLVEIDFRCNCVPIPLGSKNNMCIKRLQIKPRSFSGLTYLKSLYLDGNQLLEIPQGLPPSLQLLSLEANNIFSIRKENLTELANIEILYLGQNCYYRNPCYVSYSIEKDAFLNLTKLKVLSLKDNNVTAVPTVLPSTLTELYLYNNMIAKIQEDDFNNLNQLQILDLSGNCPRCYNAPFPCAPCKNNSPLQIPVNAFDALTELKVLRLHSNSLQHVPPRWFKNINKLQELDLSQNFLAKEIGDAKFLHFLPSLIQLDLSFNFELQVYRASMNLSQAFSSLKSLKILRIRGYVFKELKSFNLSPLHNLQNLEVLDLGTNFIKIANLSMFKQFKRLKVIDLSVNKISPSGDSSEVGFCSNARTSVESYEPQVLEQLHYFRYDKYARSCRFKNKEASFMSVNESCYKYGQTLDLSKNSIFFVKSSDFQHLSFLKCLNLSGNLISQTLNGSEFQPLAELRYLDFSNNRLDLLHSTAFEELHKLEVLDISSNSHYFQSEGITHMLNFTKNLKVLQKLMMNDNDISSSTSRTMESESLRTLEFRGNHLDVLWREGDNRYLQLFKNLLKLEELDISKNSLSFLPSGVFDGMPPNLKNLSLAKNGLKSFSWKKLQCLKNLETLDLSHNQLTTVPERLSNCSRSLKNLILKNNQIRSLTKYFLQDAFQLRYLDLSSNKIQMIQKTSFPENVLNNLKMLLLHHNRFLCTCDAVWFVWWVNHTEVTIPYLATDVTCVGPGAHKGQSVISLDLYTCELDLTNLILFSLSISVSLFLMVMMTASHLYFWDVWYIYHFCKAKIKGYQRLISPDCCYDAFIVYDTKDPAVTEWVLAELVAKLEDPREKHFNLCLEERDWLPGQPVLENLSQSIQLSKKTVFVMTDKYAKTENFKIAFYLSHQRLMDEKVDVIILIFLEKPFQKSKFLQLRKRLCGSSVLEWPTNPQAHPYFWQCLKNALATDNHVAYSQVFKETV
Procedure: This procedure describes a method for assaying human TLR7 (hTLR7) agonist activity of the compounds disclosed in this specification.
HEK-Blue™ TLR7 cells were added to each well of a 384-well tissue-culture plate (15,000 cells per well) and incubated 16-18 h at 37° C., 5% CO2. Compounds (100 nl) were dispensed into wells containing the HEK-Blue™ TLR cells and the treated cells were incubated at 37° C., 5% CO2. After 18 h treatment ten microliters of freshly-prepared Quanti-Blue™ reagent (Invivogen) was added to each well, incubated for 30 min (37° C., 5% CO2) and SEAP levels measured using an Envision plate reader (OD=620 nm). The half maximal effective concentration values (EC50; compound concentration which induced a response halfway between the assay baseline and maximum) were calculated.

[1] = system: CD69 in human whole blood; assay: Induction of CD69 in human whole blood (hWB); format: cell-based; details: heparinized human whole blood, 17 h, CD69 surface staining; 100% set to 1 uM resiquimod; average where assay repeated
Procedure: The induction of Type I interferon (IFN) MX-1 genes and the B-cell activation marker CD69 are downstream events that occur upon activation of the TLR7 pathway. The following is a human whole blood assay that measures their induction in response to a TLR7 agonist.
Heparinized human whole blood was harvested from human subjects and treated with test TLR7 agonist compounds at 1 mM. The blood was diluted with RPMI 1640 media and Echo was used to predot 10 nL per well giving a final concentration of 1 uM (10 nL in 10 uL of blood). After mixing on a shaker for 30 sec, the plates were covered and placed in a 37° C. chamber for o/n=17 hrs. Fixing/lysis buffer was prepared (5×->1×in H2O, warm at 37° C.; Cat# BD 558049) and kept the perm buffer (on ice) for later use.
For surface markers staining (CD69): prepared surface Abs: 0.045 ul hCD14-FITC (ThermoFisher Cat # MHCD1401)+0.6 ul hCD19-ef450 (ThermoFisher Cat #48-0198-42)+1.5 ul hCD69-PE (cat# BD555531)+0.855 ul FACS buffer. Added 3 ul/well, spin1000 rpm for 1 min and mixed on shaker for 30 sec, put on ice for 30 mins. Stop stimulation after 30 minutes with 70 uL of prewarmed 1×fix/lysis buffer and use Feliex mate to resuspend (15 times, change tips for each plate) and incubate at 37° C. for 10 minutes.
Centrifuge at 2000 rpm for 5 minutes aspirate with HCS plate washer, mix on shaker for 30 sec and then wash with 70 uL in dPBS and pelleted 2 xs (2000 rpm for 5 min) and 50 ul wash in FACS buffer pelleted 1 xs(2000 rpm for 5 min). Mix on shaker for 30 sec. For Intracellular markers staining (MX-1): Add 50 ul of BD Perm buffer III and mix on shaker for 30 sec. Incubate on ice for 30 minutes (in the dark). Wash with 50 uL of FACS buffer 2×(spin @2300 rpm×5 min after perm) followed by mixing on shaker for 30 sec. Resuspended in 20 ul of FACS buffer containing MX1 antibody ( )(4812)-Alexa 647: Novus Biologicals #NBP2-43704AF647) 20 ul FACS bf+0.8 ul hlgG+0.04 ul MX-1. Spin 1000 rpm for 1 min, mix on shaker for 30 se and the samples were incubated at RT in the dark for 45 minutes followed by washing 2×FACS buffer (spin @2300 rpm×5 min after perm). Resuspend 20 ul (35 uL total per well) of FACS buffer and cover with foil and place in 4° C. to read the following day. Plates were read on iQuePlus. The results were loaded into toolset and […] curves are generated in curve master. The y-axis 100% is set to 1 uM of resiquimod.

Row | SMILES | EC50 (human TLR7) | EC50 [1]
1 | COc1cc(C(=O)NC2CCN(CCO)CC2)ccc1Cn1ncc2nc(N)nc(NCC3CC4(CC4)C3)c21 [Compound 225] | 1220 nM | 218 nM
2 | COc1cc(C(=O)NC2CC3(C2)CN(C)C3)ccc1Cn1ncc2nc(N)nc(NCC3CC4(CC4)C3)c21 (stereo not drawn) [Compound 201] | 842 nM | 206 nM
3 | COc1cc(C(=O)N2CCS(=O)(=O)CC2)ccc1Cn1ncc2nc(N)nc(NCC3CC4(CC4)C3)c21 [Compound 227] | 507 nM | 125 nM
4 | CCC[C@@H](CCO)Nc1nc(N)nc2cnn(Cc3ccc(CN4CC5(C4)CN(CC4CC4)C5)cc3OC)c12 [Compound 253] | 14.5 nM | 1.3 nM
5 | Nc1nc(NCC2CC3(CC3)C2)c2c(cnn2Cc2ccc(CN3CC4(CNC4)C3)cc2OC(F)F)n1 [Compound 242] | 829 nM | 588 nM
6 | COc1cc(CN2C[C@H]3CNC[C@H]3C2)ccc1Cn1ncc2nc(N)nc(NCC3CC4(CCC4)C3)c21 [Compound 157] | 65.7 nM | 364 nM
7 | COc1cc(C(=O)N2CCN(S(C)(=O)=O)CC2)ccc1Cn1ncc2nc(N)nc(NCC3CC4(CC4)C3)c21 [Compound 236] | 199 nM | 284 nM
8 | COc1cc(CNC2CCOCC2)ccc1Cn1ncc2nc(N)nc(NCC3CC4(CCC4)C3)c21 [Compound 154] | 26.9 nM | 130 nM
9 | COc1cc(C(=O)N2CC3(CNC3)C2)ccc1Cn1ncc2nc(N)nc(NCC3CC4(CC4)C3)c21 [Compound 172] | 785 nM | 300 nM
10 | COc1cc(C(=O)N2C[C@H]3CN(C)C[C@H]3C2)ccc1Cn1ncc2nc(N)nc(NCC3CC4(CC4)C3)c21 [Compound 176] | 10.8 nM | 3.6 nM
11 | COc1cc(C(=O)NC2CCN(CC(C)(C)O)CC2)ccc1Cn1ncc2nc(N)nc(NCC3CC4(CC4)C3)c21 [Compound 238] | 86 nM | 35.2 nM
12 | CN1C[C@H]2C[C@@H]1CN2C(=O)c1ccc(Cn2ncc3nc(N)nc(NCC4CC5(CC5)C4)c32)c(OC(F)F)c1 [Compound 219] | 188 nM | 37.7 nM
13 | COc1cc(C(=O)N2CC3(CN(C)C3)C2)ccc1Cn1ncc2nc(N)nc(NCC3CC4(CCC4)C3)c21 [Compound 200] | 124 nM | 130 nM
14 | COc1cc(CN2CC3(C2)CN(C(C)C)C3)ccc1Cn1ncc2nc(N)nc(NCc3cc(C)on3)c21 [Compound 213] | 53.4 nM | 2.3 nM
15 | COc1cc(CNC2CCC2)ccc1Cn1ncc2nc(N)nc(NCC3CC4(CCC4)C3)c21 [Compound 153] | 30.5 nM | 189 nM
16 | COc1cc(CN2CC3(C2)CN(C(C)=O)C3)ccc1Cn1ncc2nc(N)nc(NCC3CC4(CC4)C3)c21 [Compound 108] | 50.1 nM | 52.9 nM
17 | COc1cc(CNCCO)ccc1Cn1ncc2nc(N)nc(NCC3CC4(CC4)C3)c21 [Compound 170] | 18.5 nM | 2.1 nM
18 | CCC[C@@H](CCO)Nc1nc(N)nc2cnn(Cc3ncc(C4=CC5(CCN(C(C)C)CC5)C4)cc3OC)c12 [Compound 274] | 82.3 nM | 1.1 nM
19 | CCC[C@@H](CCO)Nc1nc(N)nc2cnn(Cc3ncc(C4CC5(CCN(C6CCOCC6)CC5)C4)cc3OC)c12 [Compound 270] | 11.5 nM | 0.2 nM

The remaining molecules from weak to strong by EC50 (human TLR7), led by results:

Row | EC50 (human TLR7) | EC50 [1] | SMILES
20 | 950 nM | 783 nM | COc1cc(CN(C)C)ccc1Cn1ncc2nc(N)nc(NCC3CC4(C3)CC(F)(F)C4)c21 [Compound 186]
21 | 382 nM | 464 nM | COc1cc(CN2CC3(C2)CS(=O)(=O)C3)ccc1Cn1ncc2nc(N)nc(NCC3CC4(C3)CC4(F)F)c21 (stereo not drawn) [Compound 139]
22 | 358 nM | 160 nM | COc1cc(CN2CC3(C2)CN(C(C)=O)C3)ccc1Cn1ncc2nc(N)nc(NCC3CC4(C3)CC4F)c21 (stereo not drawn) [Compound 121]
23 | 291 nM | 845 nM | COc1cc(C(=O)N2C[C@@H]3CN(S(C)(=O)=O)C[C@@H]3C2)ccc1Cn1ncc2nc(N)nc(NCC3CC4(CC4)C3)c21 [Compound 240]
24 | 267 nM | 10.7 nM | CCCCNc1nc(N)nc2cnn(Cc3ccc(CN4CC5(CCNCC5)C4)cc3OC)c12 [Compound 256]
25 | 266 nM | 244 nM | COc1cc(CN2C[C@@H]3C[C@H]2CN3)ccc1Cn1ncc2nc(N)nc(NCC3CC4(C3)CC4(F)F)c21 (stereo partly drawn) [Compound 141]
26 | 147 nM | 6.5 nM | CCCCNc1nc(N)nc2cnn(Cc3ccc(CN4CCC5(CNC5)C4)cc3OC)c12 [Compound 258]
27 | 93.1 nM | 934 nM | COc1cc(C(=O)N2CC3(COC3)C2)ccc1Cn1ncc2nc(N)nc(NCC3CC4(CC4)C3)c21 [Compound 174]
28 | 55.6 nM | 1.6 nM | CCC[C@@H](CCO)Nc1nc(N)nc2cnn(Cc3ccc(CN4CC5(CN(CC)C5)C4)cc3OC)c12 [Compound 249]
29 | 45.3 nM | 1.1 nM | CCC[C@@H](CCO)Nc1nc(N)nc2cnn(Cc3ncc(C4CC5(C4)CN(C4CCOCC4)C5)cc3OC)c12 [Compound 250]
30 | 45 nM | 32.4 nM | COc1cc(C(=O)N2C[C@@H]3C[C@H]2CN3C)ccc1Cn1ncc2nc(N)nc(NCC3CC4(C3)CC4(F)F)c21 (stereo partly drawn) [Compound 151]
31 | 42.5 nM | 8.9 nM | COc1cc(CN2CC3(CC(O)C3)C2)ccc1Cn1ncc2nc(N)nc(NCC3CC4(CC4)C3)c21 (stereo not drawn) [Compound 146]
32 | 40.5 nM | 37 nM | COc1cc(CN2CC3(CC(OC)C3)C2)ccc1Cn1ncc2nc(N)nc(NCC3CC4(CC4)C3)c21 (stereo not drawn) [Compound 147]
33 | 37.1 nM | 32.9 nM | CCC[C@@H](CCO)Nc1nc(N)nc2cnn(Cc3ccc(C(=O)N4CC5(C4)CN(C(C)C)C5)cc3OC)c12 [Compound 232]
34 | 17 nM | 2.8 nM | COc1cc(C(=O)N2CCNCC2)ccc1Cn1ncc2nc(N)nc(NCC3CC4(CC4)C3)c21 [Compound 171]
35 | 16 nM | 2.4 nM | COc1cc(C(=O)N(C)CCN(C)C)ccc1Cn1ncc2nc(N)nc(NCC3CC4(CC4)C3)c21 [Compound 222]
36 | 9.4 nM | 17.2 nM | COc1cc(C(=O)N2C[C@H]3CN(C)C[C@H]3C2)ccc1Cn1ncc2nc(N)nc(NCC3CC4(C3)CC4(F)F)c21 (stereo partly drawn) [Compound 150]

Reference: US20230122249A1, “1H-PYRAZOLO[4,3-d]PYRIMIDINE COMPOUNDS AS TOLL-LIKE RECEPTOR 7 (TLR7) AGONISTS” (BRISTOL-MYERS SQUIBB COMPANY, priority 2020, published 2023)
